Assay results taken from ChEMBL document CHEMBL1138720, “Synthesis, (1-->3)-beta-D-glucanase-binding ability and phytoalexin-elicitor activity of (R)-2,3-epoxypropyl (1-->3)-beta-D-pentaglucoside” (Bioorg Med Chem Lett, 2004).

Columns and labels:
[1] = Phytoalexin-elicitor activity in tobacco cotyledon tissue was determined after 66 hrs; assay type: functional, Nicotiana tabacum
[2] = Phytoalexin-elicitor activity in tobacco cotyledon tissue was determined after 22 hrs; assay type: functional, Nicotiana tabacum
[3] = Inactivation of (1-3)-beta-D-glucanase by the compound was determined
[4] = Phytoalexin-elicitor activity in tobacco cotyledon tissue was determined after 44 hrs; assay type: functional, Nicotiana tabacum

EC50 [1]: 160 uM l-1 | EC50 [2]: 90 uM l-1 | K app [3]: 0.000379 min⁻¹ | EC50 [4]: 80 uM l-1
Compound: OC[C@H]1O[C@@H](O[C@@H]2[C@@H](O)[C@H](O[C@@H]3[C@@H](O)[C@H](O[C@@H]4[C@@H](O)[C@H](O[C@@H]5[C@@H](O)[C@H](OC[C@H]6CO6)O[C@H](CO)[C@H]5O)O[C@H](CO)[C@H]4O)O[C@H](CO)[C@H]3O)O[C@H](CO)[C@H]2O)[C@H](O)[C@@H](O)[C@@H]1O
